Source: PubChem BioAssay (NCI)
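Results reflect a 48-hour exposure of cells in 96-well plates to compound at five concentrations. TGI denotes the concentration required for complete inhibition of growth.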

Tests used:
Experiment in all cases: DTP human tumour cell line panel, 48 h
COLO 205 colon = test system: COLO 205 colon
NCI-H522 lung = test system: NCI-H522 lung
NCI-H23 lung = test system: NCI-H23 lung
UO-31 renal = test system: UO-31 renal
OVCAR-3 ovarian = test system: OVCAR-3 ovarian
RXF 393 renal = test system: RXF 393 renal
DMS 114 small cell lung = test system: DMS 114 small cell lung
SNB-75 CNS = test system: SNB-75 CNS
OVCAR-5 ovarian = test system: OVCAR-5 ovarian
M14 melanoma = test system: M14 melanoma
HCT-15 colon = test system: HCT-15 colon
EKVX NSCLC = test system: EKVX NSCLC
MOLT-4 leukemia = test system: MOLT-4 leukemia
SK-MEL-2 melanoma = test system: SK-MEL-2 melanoma
A549 NSCLC = test system: A549 NSCLC
OVCAR-8 ovarian = test system: OVCAR-8 ovarian
SW-620 colon = test system: SW-620 colon
SK-OV-3 ovarian = test system: SK-OV-3 ovarian
U251 CNS = test system: U251 CNS
OVCAR-4 ovarian = test system: OVCAR-4 ovarian
CCRF-CEM leukemia = test system: CCRF-CEM leukemia
SK-MEL-5 melanoma = test system: SK-MEL-5 melanoma
LOX IMVI melanoma = test system: LOX IMVI melanoma
HOP-92 NSCLC = test system: HOP-92 NSCLC
SN12C renal = test system: SN12C renal
DLD-1 colon = test system: DLD-1 colon
RXF-631 renal = test system: RXF-631 renal
A498 renal = test system: A498 renal
SNB-78 CNS = test system: SNB-78 CNS
HOP-62 NSCLC = test system: HOP-62 NSCLC
KM20L2 colon = test system: KM20L2 colon
RPMI-8226 leukemia = test system: RPMI-8226 leukemia
SNB-19 CNS = test system: SNB-19 CNS
SK-MEL-28 melanoma = test system: SK-MEL-28 melanoma
TK-10 renal = test system: TK-10 renal
M19-MEL melanoma = test system: M19-MEL melanoma
SF-268 CNS = test system: SF-268 CNS
NCI-H460 lung = test system: NCI-H460 lung
SF-295 CNS = test system: SF-295 CNS
SF-539 CNS = test system: SF-539 CNS
UACC-257 melanoma = test system: UACC-257 melanoma
HCT-116 colon = test system: HCT-116 colon
UACC-62 melanoma = test system: UACC-62 melanoma
786-0 renal = test system: 786-0 renal
DMS 273 small cell lung = test system: DMS 273 small cell lung
HL-60(TB) leukemia = test system: HL-60(TB) leukemia
HCC-2998 colon = test system: HCC-2998 colon
MALME-3M melanoma = test system: MALME-3M melanoma
HOP-18 NSCLC = test system: HOP-18 NSCLC
NCI-H226 lung = test system: NCI-H226 lung
ACHN renal = test system: ACHN renal
CAKI-1 renal = test system: CAKI-1 renal
K-562 leukemia = test system: K-562 leukemia
KM12 colon = test system: KM12 colon
IGROV1 ovarian = test system: IGROV1 ovarian
LXFL 529 NSCLC = test system: LXFL 529 NSCLC
HT29 colon = test system: HT29 colon
SR leukemia = test system: SR leukemia
XF 498 CNS = test system: XF 498 CNS

Measured: TGI

O=C1Nc2cc(Cl)ccc2N=CC1NC(=O)C(c1ccccc1)c1ccccc1Cl (stereo not drawn)
not listed: SR leukemia | XF 498 CNS
> 100 µM: all other assays above

C#Cc1c(C)c(/C=C/C(C)=C/C=C/C(C)=C/C(=O)OC)n(C)c1C
not listed: RXF 393 renal | SK-MEL-5 melanoma | SN12C renal | A498 renal | DMS 273 small cell lung | HCC-2998 colon | HOP-18 NSCLC | NCI-H226 lung
> 100 µM: all other assays above
